From patent US4696920A, “Certain 2-substituted 1,3-propylidenediphosphonate derivatives, pharmaceutical compositions containing them and their use as antihypertensive agents” (priority 1984, dated 1987)
Entries after “also recorded” stand apart in the source; their conditions may differ.

Assays:
[1] = tested on: isolated rat atrium (atrium rate); assay: Chronotropic activity in isolated rat atrium; set-up: species or system rat (male SHR, Okamoto-Aoki); conditions: 5.0 × 10^-6 M, mean ± SEM, read-out: Decrease in atrium rate (% pretest)
Protocol: Spontaneously hypertensive male rats (SHR) (Okamoto-Aoki strain) were anesthetized with Pentobarbital (Nembutal Abbott, 60 mg/kg, i.p.). The hearts were quickly excised and both atria were dissected free from adjacent cardiac tissues. The atria were immediatly placed in a 50 ml Krebs-Ringer bath with the following composition (mM): NaCl, (120.0); KCl, (5.63); CaCl2, (2.0); MgCl2, (2.10); NaHCO3, (25.0); Glucose, (9.7) (pH 7.4). The solution was continuously bubbled with a O2 /CO2 mixture (95/5) and maintained at 37±1° C. The atrium was fixed to an optical displacement transducer (IITC, USA) under a resting tension of 1 g in order to measure atrial rate. The preparation was allowed to equilibrate for 40 min then cumulative dose-response curves were determined for each test compound (0.5-5 μMole/l). Maximum effect was normally obtained within 30-40 min. for each concentration.
Stock solutions of the 1,3-diphosphonates were generally prepared in 0.9% saline and water insoluble compounds were prepared in 50% ethanol. […] When tested at the concentration of 5.0×10^-6 M a decrease in atrium rate of more than 5% was considered as significant.
All data are presented as % decrease of initial atrium rate (mean values±SEM). A potent negative chronotropic effect was found with all compounds tested (table 3).

[2] = tested on: rat trachea contraction induced by KCl depolarization; assay: KCl-induced rat trachea contraction; set-up: species or system rat (male SHR, Okamoto-Aoki); conditions: for activity at 1 µM: Rattus norvegicus, 40 min, read-out: Contraction (% max.); for activity on KCl-induced trachea contraction (in words): final concentration 1.0 μM
Procedure, shortened: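 Spiral trachea strips from male SHR rats were held in Krebs-Ringer (pH 7.4, 95/5 O2/CO2, 37±1° C) under 1.5–2 g tension, and contraction was measured isometrically. After a 65 mM KCl plateau, drugs (1.0 μM final) were added. Residual contraction at 40 min was expressed as % of the initial KCl response.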

[3] = tested on: mean blood pressure in rat; assay: Acute intravenous hypotensive activity in anesthetized rats; format: in vivo, rat (male Wistar); conditions: for hypotensive activity (in words): acute i.v., Table 4
Protocol: Male Wistar rats were anesthetized with Pentobarbital (Nembutal, 60 mg/kg i.p.) and heparinized (5 mg/kg i.p.). After tracheotomy the right carotid was cannulated (catheter PE 50); blood pressure was measured with a pressure transducer (Statham P 23 db) and recorded on a polygraph (Beckman).
Animals received 0.5 and 1.5 mg/kg of the test compounds. Less than 100 μl of test compounds dissolved in 0.9% saline were injected in the jugular vein. Highly water insoluble compounds were suspended in 2% Tween-80. Injection of the vehicle alone had no detectable hypotensive effect.
Results presented are expressed as percent decrease in initial mean blood pressure (Mean±SEM).

[4] = tested on: calcium channel binding site for [^3 H]-Nitrendipine (rat brain membranes); assay: [^3 H]-Nitrendipine binding to rat brain membranes; set-up: species or system rat (male Wistar); conditions: Table 1a; for Specifically bound [^3 H]-Nitrendipine % of control value: compound concentration 1.0 μM; for Bound ^3 H at 1.0 μM / Bound ^3 H at 0.1 μM: ratio of [^3 H]-Nitrendipine bound at 1.0 and 0.1 μM compound
Procedure, shortened: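 Cerebral cortex membranes from male Wistar rats (400 μg protein/tube) were incubated with [3H]-nitrendipine and compounds in 50 mM Tris-HCl pH 7.4/150 mM NaCl/1 mM CaCl2 under subdued light, ethanol ≤0.1%. Bound radioligand was collected by GF/B filtration and counted; data are percent specific binding versus control, with compounds judged at 1.0 μM final.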

[5] = tested on: drug receptor sites associated with calcium channels; conditions: known calcium antagonists; cited from earlier work
[6] = tested on: slow inward current of the action potential; conditions: classical calcium antagonists; cited from earlier work
[7] = Rattus norvegicus, iv, read-out: Decrease in mean blood pressure (% pretest)

Compound	inhibition at 5 µM [1] [%]	activity at 1 µM [2] [%]	activity on KCl-induced trachea contraction (in words) [2]	inhibition in vivo at 0.5 mg/kg [3, 7] [%]	hypotensive activity (in words) [3]	modulation of [^3 H]-Nitrendipine binding (in words) [4]	Specifically bound [^3 H]-Nitrendipine % of control value [4]	Bound ^3 H at 1.0 μM / Bound ^3 H at 0.1 μM [4]	effect on [^3 H]-Nitrendipine binding (in words) [5]	inhibition in vivo at 1 mg/kg ([3]; Rattus norvegicus, iv, 1.0 mg/kg, known hypotensive drugs, mean ± SEM, read-out: Decrease in mean blood pressure (% pretest)) [%]	inhibition of slow inward current (in words) [6]
CCCCOP(=O)(CC(Cc1ccccc1)CP(=O)(OCCCC)OCCCC)OCCCC [Compound 73, Tetrabutyl 2-benzyl-1,3-propylidenediphosphonate]	18.8 ± 11.2	46.2 ± 1.8	potent pharmacological activity	50 ± 3.8	hypotensive activity superior to that of classical hypotensive drugs and of the calcium antagonists used as references	strong inhibitors	81 % of control value	0.862	–	–	–
CCCCOP(=O)(CC(CCc1ccccc1)CP(=O)(OCCCC)OCCCC)OCCCC [Compound 74]	8.3 ± 4.5	35 ± 1.2	potent pharmacological activity	50.8 ± 2.7	hypotensive activity superior to that of classical hypotensive drugs and of the calcium antagonists used as references	–	17 % of control value	0.380	–	–	–
CCCCOP(=O)(CC(CCCc1ccccc1)CP(=O)(OCCCC)OCCCC)OCCCC [Compound 75, Tetrabutyl 2-(3-phenylpropyl)-1,3-propylidenediphosphonate]	14.8 ± 4.8	70 ± 3	potent pharmacological activity	22.8 ± 1.6	–	strong inhibitors	22 % of control value	0.354	–	–	–
CCCCOP(=O)(CC(Cc1cccc2ccccc12)CP(=O)(OCCCC)OCCCC)OCCCC [Compound 83]	4.4 ± 0.6	62.5 ± 11.5	potent pharmacological activity	10.6 ± 0.5	–	strong inhibitors	36 % of control value	0.548	–	–	–
COc1ccc([C@@H]2Sc3ccccc3N(CCN(C)C)C(=O)[C@@H]2OC(C)=O)cc1 [Diltiazem]	–	–	–	–	–	–	–	–	stimulators; also recorded: enhances [^3 H]Nitrendipine binding	47.9	inhibit with very high specificity the slow inward current of the action potential
COC(=O)C1=C(C)NC(C)=C(C(=O)OC)C1c1ccccc1[N+](=O)[O-] [Nifedipine]	–	–	–	–	–	–	–	–	–	–	inhibit with very high specificity the slow inward current of the action potential
